Assay results: PubChem BioAssay (NCI)
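These data come from cells grown in 96-well plates and exposed to compound for 48 hours at five concentrations. TGI: concentration producing complete growth inhibition.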

Columns and labels:
Assay in all cases: NCI anticancer screen, dose series, 48 h
786-0 renal = test system: 786-0 renal
A498 renal = test system: A498 renal
A549 NSCLC = test system: A549 NSCLC
ACHN renal = test system: ACHN renal
BT-549 breast = test system: BT-549 breast
CAKI-1 renal = test system: CAKI-1 renal
CCRF-CEM leukemia = test system: CCRF-CEM leukemia
COLO 205 colon = test system: COLO 205 colon
DU-145 prostate = test system: DU-145 prostate
EKVX NSCLC = test system: EKVX NSCLC
HCC-2998 colon = test system: HCC-2998 colon
HCT-116 colon = test system: HCT-116 colon
HCT-15 colon = test system: HCT-15 colon
HOP-62 NSCLC = test system: HOP-62 NSCLC
HOP-92 NSCLC = test system: HOP-92 NSCLC
HS 578T breast = test system: HS 578T breast
HT29 colon = test system: HT29 colon
IGROV1 ovarian = test system: IGROV1 ovarian
K-562 leukemia = test system: K-562 leukemia
KM12 colon = test system: KM12 colon
LOX IMVI melanoma = test system: LOX IMVI melanoma
M14 melanoma = test system: M14 melanoma
MALME-3M melanoma = test system: MALME-3M melanoma
MCF7 breast = test system: MCF7 breast
MDA-MB-231 breast = test system: MDA-MB-231 breast
MDA-MB-435 = test system: MDA-MB-435
MDA-N = test system: MDA-N
NCI-H226 lung = test system: NCI-H226 lung
NCI-H23 lung = test system: NCI-H23 lung
NCI-H460 lung = test system: NCI-H460 lung
NCI-H522 lung = test system: NCI-H522 lung
NCI/ADR-RES ovarian = test system: NCI/ADR-RES ovarian
OVCAR-3 ovarian = test system: OVCAR-3 ovarian
OVCAR-4 ovarian = test system: OVCAR-4 ovarian
OVCAR-5 ovarian = test system: OVCAR-5 ovarian
OVCAR-8 ovarian = test system: OVCAR-8 ovarian
PC-3 prostate = test system: PC-3 prostate
RPMI-8226 leukemia = test system: RPMI-8226 leukemia
RXF 393 renal = test system: RXF 393 renal
SF-268 CNS = test system: SF-268 CNS
SF-295 CNS = test system: SF-295 CNS
SK-MEL-2 melanoma = test system: SK-MEL-2 melanoma
SK-MEL-28 melanoma = test system: SK-MEL-28 melanoma
SK-MEL-5 melanoma = test system: SK-MEL-5 melanoma
SK-OV-3 ovarian = test system: SK-OV-3 ovarian
SN12C renal = test system: SN12C renal
SNB-19 CNS = test system: SNB-19 CNS
SNB-75 CNS = test system: SNB-75 CNS
SR leukemia = test system: SR leukemia
SW-620 colon = test system: SW-620 colon
T-47D breast = test system: T-47D breast
TK-10 renal = test system: TK-10 renal
U251 CNS = test system: U251 CNS
UACC-257 melanoma = test system: UACC-257 melanoma
UACC-62 melanoma = test system: UACC-62 melanoma
UO-31 renal = test system: UO-31 renal
HL-60(TB) leukemia = test system: HL-60(TB) leukemia
MOLT-4 leukemia = test system: MOLT-4 leukemia
SF-539 CNS = test system: SF-539 CNS

Measured: TGI

O=C(Cc1ccc2ccccc2c1)NCc1ccc(C(=O)NCCc2ccccc2)cc1
> 100 µM: 786-0 renal | A498 renal | A549 NSCLC | ACHN renal | BT-549 breast | CAKI-1 renal | CCRF-CEM leukemia | COLO 205 colon | DU-145 prostate | EKVX NSCLC | HCC-2998 colon | HCT-116 colon | HCT-15 colon | HOP-62 NSCLC | HOP-92 NSCLC | HS 578T breast | HT29 colon | IGROV1 ovarian | K-562 leukemia | KM12 colon | LOX IMVI melanoma | M14 melanoma | MALME-3M melanoma | MCF7 breast | MDA-MB-231 breast | MDA-MB-435 | MDA-N | NCI-H226 lung | NCI-H23 lung | NCI-H460 lung | NCI-H522 lung | NCI/ADR-RES ovarian | OVCAR-3 ovarian | OVCAR-4 ovarian | OVCAR-5 ovarian | OVCAR-8 ovarian | PC-3 prostate | RPMI-8226 leukemia | RXF 393 renal | SF-268 CNS | SF-295 CNS | SK-MEL-2 melanoma | SK-MEL-28 melanoma | SK-MEL-5 melanoma | SK-OV-3 ovarian | SN12C renal | SNB-19 CNS | SNB-75 CNS | SR leukemia | SW-620 colon | T-47D breast | TK-10 renal | U251 CNS | UACC-257 melanoma | UACC-62 melanoma | UO-31 renal

CC(C)C1CSC2N1C(=O)C2(OCc1ccccc1)C1CC1 (centres undefined)
> 100 µM: 786-0 renal | A498 renal | A549 NSCLC | ACHN renal | BT-549 breast | CAKI-1 renal | CCRF-CEM leukemia | COLO 205 colon | DU-145 prostate | EKVX NSCLC | HCC-2998 colon | HCT-116 colon | HCT-15 colon | HL-60(TB) leukemia | HOP-62 NSCLC | HOP-92 NSCLC | HS 578T breast | HT29 colon | IGROV1 ovarian | K-562 leukemia | KM12 colon | LOX IMVI melanoma | M14 melanoma | MALME-3M melanoma | MCF7 breast | MDA-MB-231 breast | MDA-MB-435 | MDA-N | MOLT-4 leukemia | NCI-H226 lung | NCI-H23 lung | NCI-H460 lung | NCI-H522 lung | NCI/ADR-RES ovarian | OVCAR-3 ovarian | OVCAR-4 ovarian | OVCAR-5 ovarian | OVCAR-8 ovarian | PC-3 prostate | RPMI-8226 leukemia | RXF 393 renal | SF-268 CNS | SF-295 CNS | SF-539 CNS | SK-MEL-28 melanoma | SK-MEL-5 melanoma | SK-OV-3 ovarian | SN12C renal | SNB-19 CNS | SNB-75 CNS | SR leukemia | SW-620 colon | T-47D breast | TK-10 renal | U251 CNS | UACC-257 melanoma | UACC-62 melanoma | UO-31 renal
